Tests used:
Type in all cases: in vivo
H/R zebrafish = assay: Cardiac function of hypoxia-reoxygenation (H/R) zebrafish; conditions: CoQ10=4.0 mg/L, reoxygenation 24 hours, vs H/R group
Description: (§1) The zebrafish experiments are conducted in accordance to the internationally accepted standards. The wild type zebrafish strain AB is provided by the Developmental Biology Platform of Chongqing Medical University. Using the Shanghai Haisheng zebrafish aquatic ecosystem, the temperature in the fish tank is 28.5° C., the water temperature is 28-30° C., the salinity is 0.03%-0.04%, the pH is 7.2-7.6, and the photoperiod is 14 h light-10 h dark.
Three-day post fertilization wild-type of zebrafish with normal development are used for the experiment. The zebrafish are divided into 4 groups, namely the control group, the H/R (Hypoxia-reoxygenation) group, the TC group (CoQ10=4.0 mg/L), and the CoQ10 group (CoQ10=4.0 mg/L), n=30. Fill the beaker with circulating water for fish breeding, and then fill the water with high purity nitrogen. At the same time, use dissolved oxygen meter to detect the oxygen concentration in the water. Stop filling nitrogen until the oxygen concentration is stable at 0.00 mg/L. The air in the bevel glass bottle is discharged with nitrogen, and the prepared hypoxic water is put into the bevel glass bottle. The juvenile zebrafish of 3 days are put into the bottle, the cap is tightened, the glass bottle is placed into a plastic sealed bag, and then the sealed bag is vacuumed to ensure that no air enters. The end point of hypoxia is that the young fish sank to the bottom and remained motionless for 1 minute. At the same time, the zebrafish bent its body, turned the glass bottle upside down and then put it flat. The zebrafish sank head down and vertically. Then, the zebrafish are taken out and put into aquaculture water or medicine solution prepared with aquaculture water. After reoxygenation for 24 hours, the heart function indexes of zebrafish are examined.
(§2) First, the zebrafish are placed at room temperature and counted the number of heart beats within 15 seconds under a microscope. Then, the heart rate is obtained by multiplying it by 4. Then the zebrafish are placed in a petri dish, fixed with 1% low-melting agar, and held in a lateral position (with the eyes on top of the segments and the tail at the same level as the body). Fifty-eight images are generated by using an inverted fluorescence microscope for five consecutive shots. The diastolic and systolic images are selected, and the length (a) and width (b) of the ventricles are measured. The volume (V) of the ventricles is calculated with the ellipsoidal volume formula, and the surface area (S) of the ventricles is calculated with the elliptical area formula. The stroke-volume (SV), ejection fraction (EF), and fractional area change (FAC), cardiac output (CO) of zebrafish are calculated. Ventricular volume (V)=4/3π(a/2) (b/2)^2; Stroke-volume (SV)=Vdiastolic−Vsystolic; Ejection Fraction (EF)=(Vdiastole−Vsystole)/Vdiastole; Ventricular surface area (S)=(a/2) (b/2)π; Fractional Area Change (FAC)=(Sdiastolic−Ssystolic)/Sdiastolic; Cardiac Output (CO)=Cardiac volume*heart rate.

ISO-induced zebrafish [1] = assay: Cardiac function of ISO-induced zebrafish myocardial injury model; conditions: ISO=0.02 mg/L, CoQ10=4.0 mg/L, 24 hours; vs ISO group
Description: as §1
(§3) Three-day post fertilization wild-type zebrafish with normal development are used for the experiment and divided them into 4 groups, namely the control group, the ISO group (ISO=0.02 mg/L), the TC group (CoQ10=4.0 mg/L), and the CoQ10 group (CoQ10=4.0 mg/L), 30 in each group; The zebrafish in the ISO group are immersed in the ISO solution prepared with embryo culture water for 24 hours, then taken out and recorded their heart rate under a microscope. The signs of successful ISO-induced myocardial injury in zebrafish are a significant decrease in heart rate and the formation of pericardial edema. The zebrafish in the TC and CoQ10 groups are respectively immersed in embryo breeding water containing ISO and TC or CoQ10, incubated for 24 hours and then taken out for photography under a microscope.
as §2

ISO-induced zebrafish [2] = assay: ISO-induced zebrafish pericardial edema (pericardial height); conditions: ISO=0.02 mg/L, CoQ10=4.0 mg/L, 24 hours; vs ISO group
Description: as §3
Images are used to measure the height of the pericardium, the distance between the front of the yolk sac and the top of the pericardium, as shown by the arrow in FIG. 3(A).

SOD = assay: Superoxide dismutase (SOD) in ISO-induced zebrafish; conditions: ISO=0.02 mg/L, CoQ10=4.0 mg/L, 24 hours; vs ISO group
Description: as §3
(§4) The detection of SOD and LDH are carried out according to the instructions of the kits, which are purchased from NanJing JianCheng Bioengineering Institute with the article numbers of A001-3, A020-2 and A019-2-1, respectively.

LDH = assay: Lactate dehydrogenase (LDH) in ISO-induced zebrafish; conditions: ISO=0.02 mg/L, CoQ10=4.0 mg/L, 24 hours; vs ISO group
Description: as §3, §4

[3] = test system: brain natriuretic peptide (BNP); assay: BNP gene expression by RT-PCR in ISO-induced zebrafish; conditions: ISO=0.02 mg/L, CoQ10=4.0 mg/L, 24 hours; vs ISO group
Description: as §3
(§5) Zebrafish RNA extraction, reverse transcription and quantitative amplification are performed in accordance with the instructions of the kit obtained from Nanjing Vazyme Biotech Co., Ltd, the article numbers are RC101, R223-01 and Q711-02.
(§6) ANP refers to atrial natriuretic peptide, BNP refers to brain natriuretic peptide, GAPDH refers to glyceraldehyde 3-phosphate dehydrogenase.

[4] = test system: atrial natriuretic peptide (ANP); assay: ANP gene expression by RT-PCR in ISO-induced zebrafish; conditions: ISO=0.02 mg/L, CoQ10=4.0 mg/L, 24 hours; vs ISO group
Description: as §3, §5, §6

COC1=C(OC)C(=O)C(C/C=C(\C)CC/C=C(\C)CC/C=C(\C)CC/C=C(\C)CC/C=C(\C)CC/C=C(\C)CC/C=C(\C)CC/C=C(\C)CC/C=C(\C)CCC=C(C)C)=C(C)C1=O [CoQ10, Coenzyme Q10]
cardiac output (CO) (H/R zebrafish): significantly increase | ejection fraction (EF) (H/R zebrafish): significantly increase | fractional area change (FAC) (H/R zebrafish): significantly increase | heart rate (H/R zebrafish): no significant effect | stroke volume (SV) (H/R zebrafish): significantly increase | cardiac output (CO) (ISO-induced zebrafish [1]): significantly increase | ejection fraction (EF) (ISO-induced zebrafish [1]): significantly increase | fractional area change (FAC) (ISO-induced zebrafish [1]): significantly increase | heart rate (ISO-induced zebrafish [1]): no significant effect | stroke volume (SV) (ISO-induced zebrafish [1]): significantly increase | pericardial edema (pericardial height) (ISO-induced zebrafish [2]): no effect | activity of SOD (SOD): no significantly effect | activity of LDH (LDH): reduced the activity of LDH, the result is insignificant | excessive expression of BNP [3]: significantly reduce | excessive expression of ANP [4]: significantly reduce

— US20230111558A1, “Composition for Preventing and Treating Heart Dysfunction and its Application Thereof” (21ST CENTURY HERBS & HEALTH, priority 2021, published 2023)
